From patent US7638056B2, “Treatment of sewage sludge” (Rhodia Operations, priority 2003, dated 2009)
Read-outs that look alike come from different tables or passages of the source.

Tested on: E. coli
Conditions: for time/kill response over the first 6 hours contact time / contact time to total kill: FIG. 1; for contact time to total kill: sterile sludge, 22° C., about 10^8 cells per ml
Text: The methodology adopted to evaluate biocide performance was by Quantitative Suspension Test (QST) using sterile anaerobic digester sludge as the QST medium, back-inoculated with E. coli cultures previously isolated from the sludge. In this way, a consistent chemical environment (sterile sludge) could be used in conjunction with a defined bacterial challenge. This enables the provision of consistency between tests.
The E. coli strains used in QST had been isolated from raw-sludge samples.
QST were performed as follows: • Sterile sludge (19 ml) was dispensed into sterile, screw-cap, plastics universal bottles of nominal 30 ml capacity. • To each sample was added 0.5 ml of a washed cell suspension of E. coli prepared from a 16-hour culture incubated at 44° C. in Tryptose Soy Broth, which had been centrifuged (14500 rpm for 10 min.) and re-suspended in sterile phosphate buffer (0.2M at pH 7.2). An inoculum of 0.5 ml was sufficient to provide a final cell concentration of about 10^8 per ml in 20 ml of QST medium. • Fresh stock solutions of the candidate treatment chemicals were prepared in sterile phosphate buffer (0.2M at pH 7.2) at concentrations such that when 0.5 ml was added to the QST medium (final volume 20 ml) the desired final concentration of biocide was achieved. • The QST medium was mixed thoroughly and held at 22° C. for the duration of the test. • At intervals during the test, the sludge was well mixed and samples (1.0 ml) were removed from the QST medium and inoculated into the first tube of a dilution series containing MacConkey broth supplemented with sodium thiosulphate (5.0 g/l), to inactivate any residual biocide carried into the dilution series.
The end point was scored as the highest dilution in the series to show a change in colour from purple to yellow and to have developed turbidity.
MacConkey Broth was selected as this medium contains the pH indicator Bromocresol Purple that changes from purple to yellow as the medium becomes acidic. This is a useful indirect indicator of microbial growth (organic acid production) where this cannot be scored by the development of turbidity in an initially clear medium. Because the sludge contains suspended solids the first 2 tubes of the dilution series instantaneously develop turbidity on the addition of the sludge. This precludes using turbidity alone as an indicator of microbial growth.

tetrakis(hydroxymethyl) phosphonium sulphate [Phosphonium Salt]
time/kill response over the first 6 hours contact time (250 mg/l): fairly flat | contact time to total kill (250 mg/l): ≤ 48 h | time/kill response over the first 6 hours contact time (500 mg/l): fairly flat | contact time to total kill (500 mg/l): ≤ 48 h | time/kill response over the first 6 hours contact time (1000 mg/l): more progressive | contact time to total kill (1000 mg/l): ≤ 24 h | anti-microbial performance (Phosphonium Salt compared with DBNPA) (equal active-ingredient concentration of 500 mg/l, FIG. 3): superior

N#CC(Br)(Br)C(N)=O [DBNPA, dibromo-nitrilo-propionamide, reference compound]
log reduction in numbers (500 mg/l active ingredient, after 48 hours, FIG. 3): 2.5 log
